Values quoted from earlier work in article PMC12281572.
“And” between values parts separate entries of the source, which are not always exact repeats. Equal values may be shown once.

assay: FTIR, 4-fluorophenol as donor (the pK_BHX database, per the paper); conditions: CCl4; 25 C

Structure (SMILES)	pK_BHX (log10 Kf of the 1:1 H-bond complex with 4-fluorophenol, by FTIR)
CSc1ccc(C(C)=O)cc1	1.21 log units
Cc1cc(C)nc(C)c1	2.29 log units
O=P(c1ccccc1)(c1ccccc1)c1ccccc1	3.16 log units
Oc1cccc(C(F)(F)F)c1	-0.36 log units
CC(C)S	-0.1 log units
NCCCN	2.31 log units
CCOC(C)(C)C	1.08 log units
CN(C)C1=CC(=O)CC(C)(C)C1	2.92 log units
CCC(=O)N(C)C	2.36 log units
CC(C)(C)OC(=O)c1ccccc1	0.97 log units
c1ccc2c(c1)OCCO2	-0.23 log units
CCN(C(=O)N(CC)c1ccccc1)c1ccccc1	2.16 log units
O=[N+]([O-])c1cccc(N=C(Nc2ccccc2)c2ccccc2)c1	0.86 log units
COC(=O)C1CCCCC1	1.06 log units
Cc1ccc2c(c1)CN1CN2Cc2cc(C)ccc21	-0.26 log units
CN(C)C(=O)C(C)(C)C	2.1 log units
CN(C)C=NC(=O)c1ccccc1	2.1 log units
Cc1c(C)c(C)c(C)c(C)c1C	0.02 log units
CCN(CC(=O)N(CC)c1ccccc1)c1ccccc1	2.16 log units
c1ccc(Sc2ccccc2)cc1	-0.51 log units and -0.93 log units
CCN(C)C	2.17 log units
Brc1ccc(N=C(Nc2ccc(Br)cc2)c2ccccc2)cc1	0.87 log units
COc1cccc(CN=CN(C)C)c1	2.4 log units

Structure (SMILES)	pK_BHX (log10 Kf of the 1:1 H-bond complex with 4-fluorophenol, by FTIR)
c1cocn1	1.3 log units
C#CCCC#C	-0.43 log units
CC(=Nc1ccccc1)N(C)c1ccc(Br)cc1	1.38 log units
c1ccc(-c2nc3ccccc3o2)cc1	1.18 log units
CCN(C=C[N+](=O)[O-])CC	1.58 log units
CC(=O)c1cccc(Cl)c1	0.82 log units
CN(C)C=NCc1cc(Cl)cc(Cl)c1	2.0 log units
CN(C)C=NC(=S)c1ccccc1	1.23 log units
CN1C(CC(=O)c2ccccc2)CCCC1CC(O)c1ccccc1 (stereo not shown)	2.11 log units and 1.94 log units
CN(C)C=NC1CC1	2.36 log units
CC(=Nc1ccc(C)cc1)N(C)c1ccc(C)cc1	1.82 log units
CN=Cc1ccccc1	1.49 log units
CNCc1ccccc1	1.82 log units
CCO	1.02 log units
CN(C)c1ccc(Br)cc1	0.17 log units
CCOC(=O)C(C)(C)C	1.04 log units
CCSC	0.18 log units
O=[N+]([O-])c1ccc(C23CC4CC(CC(C4)C2)C3)cc1	0.42 log units
CCCN(C)C	1.98 log units
c1ccc(N2CCCC2)cc1	0.16 log units
COc1cc(C#N)cc(OC)c1	0.78 log units
CN(C)C(=O)C(F)(F)F	1.04 log units
CC1CCN(c2ccncc2)CC1	2.68 log units

Structure (SMILES)	pK_BHX (log10 Kf of the 1:1 H-bond complex with 4-fluorophenol, by FTIR)
CCN(CC)C(=O)N(CC)CC	2.43 log units
CN1C(C)(C)CCCC1(C)C	1.23 log units
C1N2CN3CN1CN(C2)C3	1.33 log units
O=C1CCCCCO1	1.63 log units
CCOC(=O)C1CC1	1.12 log units
CN(C)C=NC12CC3CC(CC(C3)C1)C2	2.52 log units
c1ccccc1	-0.49 log units
CC(C)C(=O)N(C)C	2.26 log units
COc1ccc(C(=O)N(c2ccccc2)c2ccccc2)cc1	1.67 log units
CC(C)I	-0.37 log units
CC(=O)c1cccnc1	1.39 log units and 0.9 log units
c1ccc(C23CC4CC(CC(C4)C2)C3)cc1	-0.28 log units
Ic1ccccc1	-0.64 log units
Cc1cccc(C)n1	2.14 log units
CNC(C)=S	1.14 log units
S=C1SCCS1	0.3 log units
CC(=O)Nc1ccccc1	1.69 log units
Nc1ncccn1	1.55 log units
CCN(CC)C(=O)N(c1ccccc1)c1ccccc1	2.07 log units
Cc1ccc(N=C(c2ccccc2)N(C)c2ccc(Br)cc2)cc1	1.42 log units
IC12CC3CC(CC(C3)C1)C2	-0.19 log units
CN(C)C=NN(C)C	2.43 log units
N#Cc1ccccc1Br	0.71 log units

Structure (SMILES)	pK_BHX (log10 Kf of the 1:1 H-bond complex with 4-fluorophenol, by FTIR)
O=C1CCCCCC1	1.41 log units
CC(=Nc1ccccc1)N(C)c1ccccc1	1.65 log units
Cc1ccccn1	2.03 log units
CC(C)(C)c1ccccn1	1.42 log units
CN(N)c1ccncc1	2.58 log units
CC12CCC(CC1=O)C2(C)C (stereo not shown)	1.31 log units
CCN(CC)C(=O)C(C)(C)C	2.13 log units
COc1ccccc1C=O	1.11 log units
CN(C)c1ccc(C#N)cc1	1.23 log units
CC(=Nc1ccc(C)cc1)N(C)c1ccccc1	1.75 log units
CC(=S)N(C)C	1.22 log units
CCN(CC)S(=O)(=O)N(CC)CC	1.17 log units
CCOC(=O)c1ccc(Br)cc1	0.78 log units
CSCSC	-0.22 log units
CC(=O)c1ccccc1	1.11 log units
COC(C)=O	1.0 log units
Cc1cc(C)ncn1	1.47 log units
CN1CCc2ccccc2C1	1.8 log units
CCOC(=O)c1cccc(C)c1	1.01 log units
CN(C)C=NCc1ccccc1	2.35 log units
c1ccnnc1	1.65 log units
CC(=Nc1ccc(Br)cc1)Nc1ccccc1	1.36 log units
CC(C)N(C=O)C(C)C	2.24 log units

Structure (SMILES)	pK_BHX (log10 Kf of the 1:1 H-bond complex with 4-fluorophenol, by FTIR)
COc1cccc(CN)c1	1.94 log units
CC(=O)c1cccc(C(C)=O)c1	0.86 log units
[O-][n+]1ccc(-c2ccccc2)cc1	2.85 log units
CC(=Nc1ccccc1)N(C)c1ccc(C)cc1	1.76 log units
CCCCN(C=O)CCCC	2.17 log units
c1cnc2c(c1)ccc1cccnc12	3.1 log units
CSc1ccccc1	-0.32 log units and -0.48 log units
O=S(c1ccc(Cl)cc1)c1ccc(Cl)cc1	1.68 log units
CC(C)N(C#N)C(C)C	1.74 log units
C1CSCCS1	-0.14 log units
CN(C(=Nc1ccc(Br)cc1)c1ccccc1)c1ccc(Br)cc1	0.99 log units
OCCc1ccccc1	0.97 log units
CN(C)C=O	2.1 log units
CC(=O)c1ccccc1Cl	0.9 log units
O=C1CCCCCCCCCC1	1.2 log units
COC=O	0.65 log units
FCCCF	-0.27 log units
CC(C)(C)O	1.14 log units
C=CCCCCC	-0.67 log units
CCN(CC)c1ccc(C(C)=O)cc1	1.82 log units
